According to article PMC3862803, “Human Breast Tumor Cells Are More Resistant to Cardiac Glycoside Toxicity Than Non-Tumorigenic Breast Cells” (PLoS ONE, 2013):
Like-named read-outs stand apart in the source and are kept apart here.

Key:
Na,K-ATPase = target: T1, Na,K-ATPase (Homo sapiens, UniProt P05023); test: biochemical; format: biochemical; details: for IC50: mean ± SE, n>3, read-out: IC50 for CTS inhibition of ATPase activity
T1 construct: The Na,K-ATPase activity in total membranes isolated from non-tumorous 184D, 184A, and MCF10A (10A) cells; endogenous in cells; host or cells: total membranes of MCF10A, 184D, 184A1, MCF10CA1, MCF7 and MDA-MB-231 human breast cells
Method: Total membranes (TM) were prepared from cells as previously described [37] and resuspended in cold homogenizing buffer (10 mM Tris-HCl, 2 mM EDTA, 250 mM sucrose, pH 7.4) containing Complete-Mini Protease Inhibitor Cocktail Tablets (Roche, Indianapolis, IN).
The ATPase activity assay of isolated TM from cells was performed for 30 min at 37°C as previously described [38].

MCF10A cells [1] = test: PrestoBlue viability assay; format: cell-based, human; details: for IC50: Homo sapiens, MCF-10A, 24 hours, mean ± SE, n>3, read-out: Reduced cell viability (IC50)
Method: (§1) To determine cell growth curves, cells were trypsinized, counted using a Scepter Cell Counter (Millipore, Billerica, MA), plated in a 96-well plate at a density of 1,000, 3,000, 5,000, or 10,000 cells per well, and allowed to attach overnight. On day 2, growth curves were determined using the PrestoBlue Viability Assay (Life Technologies, Grand Island, NY) to ensure cell densities used for viability and proliferation assays were in linear growth phase.

MCF7 cells [2] = test: TUNEL apoptosis assay; format: cell-based, human; details: 6 hours
184A1 cells = test: PrestoBlue viability assay; format: cell-based; details: Homo sapiens; 184A1, 24 hours; mean ± SE, n>3; read-out: Reduced cell viability (IC50)
Method: as §1

184D cells = test: PrestoBlue viability assay; format: cell-based; details: Homo sapiens, 24 hours, mean ± SE, n>3, read-out: Reduced cell viability (IC50)
Method: as §1

MCF10CA1 cells [3] = test: PrestoBlue viability assay; format: cell-based; details: Homo sapiens; MCF10CA1, 24 hours; mean ± SE, n>3; read-out: Reduced cell viability (IC50)
Method: as §1

p-ERK1/2 = test: Western blot of cell lysates for p-ERK1/2; format: cell-based, human; details: for p-ERK levels in lysates (western blot): 50 nM or 500 nM ouabain for 24 hours; for p-ERK1/2 levels in lysates (western blot): 500 nM ouabain
Method: Total cell lysate preparations were made by incubating cell pellets in lysis buffer (150 mM NaCl, 50 mM Tris, 1% CHAPS, pH 7.4) for 30 minutes at 4°C. Lysates were cleared at 15,000 x g for 10 minutes and the soluble protein supernatant was collected for analysis. Protein concentrations were determined using the Coomassie Protein Assay Kit (Pierce, Rockford, IL).
Protein samples were subject to western blot analysis according to previously described procedures [39]. Transferred proteins were blocked using either 5% dried milk, 0.1% Tween-20 in phosphate-buffered saline or 5% bovine serum albumin, 0.1% Tween-20 in Tris-buffered saline. PVDF membranes were sequentially probed with primary antibodies and horseradish peroxidase-conjugated secondary antibodies according to manufacturer’s recommendations. Luminata Forte Western HRP Substrate (Millipore, Billerica, MA) was used for peroxidase detection and the resulting signal intensity was quantified on a BioRad Chemidoc XRS using Quantity One Version 4.6.2 software. When appropriate, signal intensity from anti-actin antibody was used as a protein loading control.

MDA-MB-231 cells [4] = test: PrestoBlue viability assay; format: cell-based, human; details: for IC50: Homo sapiens, MDA-MB-231, 24 h, read-out: Reduced cell viability (IC50)
MCF10CA1 cells [5] = test: BrdU cell proliferation assay; format: cell-based, human
MDA-MB-231 cells [6] = test: BrdU cell proliferation assay; format: cell-based, human
MCF10A cells [7] = test: BrdU cell proliferation assay; format: cell-based, human; details: 500 nM ouabain for 2 hours, P<0.001
MCF7 cells [8] = test: BrdU cell proliferation assay; format: cell-based, human; details: 500 nM ouabain for 24 hours
Method: BrdU label was added to cells in fresh culture medium with or without ouabain for two hours according to manufacturer’s recommendations. BrdU incorporation into the DNA of proliferating cells was detected using an anti-BrdU primary antibody and Peroxidase Goat Anti-mouse secondary antibody. Fluorescence was quantified using a FLUOStar Omega microplate reader (BMG Labtech).

MCF10A cells [9] = test: TUNEL apoptosis assay; format: cell-based, human; details: 6 hours
Method: (§2) As a positive control, MCF10A and MCF10CA1 cells were treated with DNaseI for 15 minutes prior to assay. Cells were fixed and permeabilized prior to Terminal deoxynucleotidyl transferase dUTP nick end labeling (TUNEL) staining of DNA fragmentation using the ApopTag Fluorescein In Situ Apoptosis Detection Kit according to manufacturer’s instructions (Millipore, Billerica, MA). Slides were covered with Vectashield Mounting Medium with DAPI (Vector Laboratories, Burlingame, CA) and sealed with a glass coverslip. Images were detected and analyzed using Zeiss LSM 5 Pascal microscope and software.

MDA-MB-231 cells [10] = test: TUNEL apoptosis assay; format: cell-based, human; details: 6 hours
Method: as §2

MCF10CA1 cells [11] = test: TUNEL apoptosis assay; format: cell-based, human; details: 6 hours
Method: as §2

prostate cancer = details: digoxin use, large prospective cohort study; cited from earlier work
[12] = 24 hour ouabain at high concentrations (500 nM)

C[C@@H]1O[C@@H](O[C@H]2C[C@@H](O)[C@]3(CO)[C@H]4[C@H](O)C[C@]5(C)[C@@H](C6=CC(=O)OC6)CC[C@]5(O)[C@@H]4CC[C@]3(O)C2)[C@H](O)[C@H](O)[C@H]1O [Ouabain, ouabain]
ATPase inhibition at varied serum level (Na,K-ATPase; MCF10A isolated membranes, 0-10% serum, 500 nM ouabain, p > 0.05): No significant difference in ATPase inhibition | Cell viability over treatment duration (MCF10A cells [1]; 500 nM ouabain, after 2 days (0 to 48 hours)): nearly all of the MCF10A cells have died | IC50 (MCF10A cells [1]): 2170 ± 192 nM | Cell viability at varied serum concentration (MCF10A cells [1]; reduced serum (0-10% serum), 500 nM ouabain for 24 hours): increased ouabain sensitivity | Cells exhibiting DNA fragmentation (TUNEL), a marker for apoptosis (MCF7 cells [2]; 500 nM ouabain): < 5% | IC50 (184A1 cells): 1490 ± 45.3 nM | IC50 (184D cells): 1350 ± 155 nM | IC50 (MCF10CA1 cells [3]): 2670 ± 574 nM | p-ERK levels in lysates (western blot) (p-ERK1/2; A2780CP (cisplatin resistant) cells): increased levels of p-ERK | p-ERK levels in lysates (western blot) (p-ERK1/2; A2780 cells): increased levels of p-ERK | p-ERK1/2 levels in lysates (western blot) (p-ERK1/2; MCF10A, 24 hours (any treatment condition)): did not contain detectable levels of activated p-ERK1/2 | p-ERK1/2 levels in lysates (western blot) (p-ERK1/2; MCF10CA1, 24 hours): elevated p-ERK1/2 levels | p-ERK1/2 levels in lysates (western blot) (p-ERK1/2; MDA-MB-231, 24 hours): elevated p-ERK1/2 levels | Cell viability at varied serum concentration (MDA-MB-231 cells [4]; MDA-MB-231, 0-10% serum, 500 nM ouabain for 24 hours): not affected | Proliferation (BrdU incorporation) (MCF10CA1 cells [5]; [12]): slight decrease in proliferation | Proliferation (BrdU incorporation) (MCF10CA1 cells [5]; short-term (2 hours) ouabain): not affected | Proliferation (BrdU incorporation) (MDA-MB-231 cells [6]; [12]): slight decrease in proliferation | Proliferation (BrdU incorporation) (MDA-MB-231 cells [6]; short-term (2 hours) ouabain): not affected | Proliferation (BrdU incorporation) (MCF10A cells [7]): decrease in proliferation | Proliferation (BrdU incorporation) (MCF7 cells [8]): no change to proliferation | Cells exhibiting DNA fragmentation (TUNEL), a marker for apoptosis (MCF10A cells [9]; 500 nM ouabain): Over 90% | Cells exhibiting DNA fragmentation (TUNEL), a marker for apoptosis (MDA-MB-231 cells [10]; 500 nM ouabain): < 5% | Cells exhibiting DNA fragmentation (TUNEL), a marker for apoptosis (MCF10CA1 cells [11]; 500 nM ouabain): < 5%

C[C@H]1O[C@@H](O[C@H]2[C@@H](O)C[C@H](O[C@H]3[C@@H](O)C[C@H](O[C@H]4CC[C@@]5(C)[C@H](CC[C@@H]6[C@@H]5CC[C@]5(C)[C@@H](C7=CC(=O)OC7)CC[C@]65O)C4)O[C@@H]3C)O[C@@H]2C)C[C@H](O)[C@@H]1O [Digitoxin, digitoxin]
IC50 (Na,K-ATPase; total membranes of 184A1 cells): 1830 ± 88.7 nM | IC50 (Na,K-ATPase; total membranes of 184D cells): 2070 ± 307 nM | IC50 (Na,K-ATPase; total membranes of MCF7 cells): 1160 ± 42.7 nM | IC50 (Na,K-ATPase; total membranes of MCF10A cells): 1350 ± 85.2 nM | IC50 (Na,K-ATPase; total membranes of MCF10CA1 cells): 1480 ± 73.8 nM | IC50 (Na,K-ATPase; total membranes of MDAMB231 cells): 1180 ± 155 nM | IC50 (MCF10A cells [1]): 1570 ± 191 nM | IC50 (184A1 cells): 1440 ± 29.3 nM | IC50 (184D cells): 1270 ± 65.4 nM | IC50 (MCF10CA1 cells [3]): 3680 ± 89.5 nM | IC50 (MDA-MB-231 cells [4]): 3680 ± 150 nM

C[C@H]1O[C@@H](O[C@H]2[C@@H](O)C[C@H](O[C@H]3[C@@H](O)C[C@H](O[C@H]4CC[C@@]5(C)[C@H](CC[C@@H]6[C@@H]5C[C@@H](O)[C@]5(C)[C@@H](C7=CC(=O)OC7)CC[C@]65O)C4)O[C@@H]3C)O[C@@H]2C)C[C@H](O)[C@@H]1O [digoxin]
Prevention of prostate cancer (prostate cancer): ≤ 25%

C[C@]12CC[C@H](O)C[C@H]1CC[C@@H]1[C@@H]2CC[C@]2(C)[C@@H](c3ccc(=O)oc3)CC[C@]12O [Bufalin, bufalin]
IC50 (MCF10A cells [1]): 465 ± 25.9 nM | Cells exhibiting DNA fragmentation (TUNEL), a marker for apoptosis (MCF7 cells [2]; 50 nM bufalin): < 5% | IC50 (184A1 cells): 319 ± 6.1 nM | IC50 (184D cells): 329 ± 11.2 nM | IC50 (MCF10CA1 cells [3]): 635 ± 172 nM | IC50 (MDA-MB-231 cells [4]): 936.4 ± 4.9 nM | Cells exhibiting DNA fragmentation (TUNEL), a marker for apoptosis (MCF10A cells [9]; 50 nM bufalin): Over 90% | Cells exhibiting DNA fragmentation (TUNEL), a marker for apoptosis (MDA-MB-231 cells [10]; 50 nM bufalin): < 5% | Cells exhibiting DNA fragmentation (TUNEL), a marker for apoptosis (MCF10CA1 cells [11]; 50 nM bufalin): < 5%
